The text below walks through data of US11883537B2, “Sustained release solid dosage forms for modulating the colonic microbiome” (Axial Therapeutics, Inc., priority 2019, dated 2024).

Like-named read-outs stand apart in the source and are kept apart here.

One assay has as its target α-synuclein (Homo sapiens, UniProt P37840). The experiment in a line: ThT assay, aggregation of α-synuclein. The class given is biochemical. The source says:
(§1) A compound that inhibits, or that may inhibit, amyloidogenesis is combined with a bacterial amyloid initiator (e.g., E. coli CsgA), or a host-derived amyloidogenic protein (e.g., α-synuclein) and an amyloid precursor in the presence of Thioflavin T (ThT). Separately, as a control, bacterial amyloid initiator, amyloid precursor, and Thioflavin T are combined in the absence of the suspected amyloidogenesis inhibitor. Thioflavin T fluorescence is monitored over time. […] The Tht assay was used with a cell-free assay to assess the effects of compounds on aggregation of α-synuclein of E. coli CsgA, and to assess the effects of compounds on aggregation of α-synuclein seeded by E. coli CsgA.

Assay [1] addresses α-synuclein seeded by E. coli CsgA (Homo sapiens, UniProt P37840). Format: biochemical. The note with it: ThT fluorescence, cell-free.
Text: as §1

A further assay concerns the target E. coli CsgA (Escherichia coli, UniProt P28307). Nature of the assay: ThT assay, aggregation of E. coli CsgA. Format: biochemical. The note with it: ThT fluorescence, cell-free. The source says:
A compound that inhibits, or that may inhibit, amyloidogenesis is combined with a bacterial amyloid initiator (e.g., E. coli CsgA), or a host-derived amyloidogenic protein (e.g., α-synuclein) and an amyloid precursor in the presence of Thioflavin T (ThT). Separately, as a control, bacterial amyloid initiator, amyloid precursor, and Thioflavin T are combined in the absence of the suspected amyloidogenesis inhibitor. Thioflavin T fluorescence is monitored over time. A reduction in the rate of increase in Thioflavin T fluorescence, and/or a reduction in the maximum level of Thioflavin T fluorescence in the sample containing the suspected inhibitor, relative to the control sample, confirms that the suspected amyloidogenesis inhibitor is in fact functioning to inhibit amyloid formation. The Tht assay was used with a cell-free assay to assess the effects of compounds on aggregation of α-synuclein of E. coli CsgA, and to assess the effects of compounds on aggregation of α-synuclein seeded by E. coli CsgA. For a detailed description of the ThT assay, see, e.g., International Publication No. WO/2018/213204, which is incorporated by reference herein in its entirety.

The next assay has as its system αSyn amyloid formation. The note with it: mice; cited from earlier work.
Assay [2] concerns bacterial curli levels in the gastrointestinal tract. The experiment in a line: Murine models, curli content in feces. The class given is in vivo. The note with it: SPF mice or germ free mice mono-colonized with E. coli MC4100; oral. As for the experimental part:
The following two mouse models were used to evaluate the in vivo activity of test articles (i.e., sustained release solid dosage forms described herein).
Model 1 was performed in selected strains of specific pathogen free (SPF) mice (e.g. Swiss Webster) that carry curli producing bacteria as part of their native gastrointestinal microbiota.
Model 2 was performed in germ free mice that have no native microbiota. In these mice administration, by oral gavage, of a single strain of curli-producing bacteria (e.g. E. coli MC4100) led to stable bacterial colonization of their gastrointestinal tract. […]
To evaluate the ability of test articles to modify bacterial curli levels in the gastrointestinal tract mice, from either Model 1 or 2, were treated with compound typically administered once daily via oral gavage. […] Where appropriate, test articles were evaluated at multiple dose levels, or at greater or lower dosing frequency. […]
To enable the quantitative assessment of test article impact on gastrointestinal curli levels, fecal samples were collected from these treated mice. […]
Assessment of curli content in feces was achieved through one of four approaches: • 1. Quantitative measurement of messenger RNA (mRNA) levels for csgA using a specific qRT-PCR approach. • 2. Quantitative measurement of curli protein levels using fluorescent dyes that bind to amyloid proteins (e.g. ThT, Congo Red, FSB). • 3. […]

Chain of E. coli CsgA (P28307 21-151): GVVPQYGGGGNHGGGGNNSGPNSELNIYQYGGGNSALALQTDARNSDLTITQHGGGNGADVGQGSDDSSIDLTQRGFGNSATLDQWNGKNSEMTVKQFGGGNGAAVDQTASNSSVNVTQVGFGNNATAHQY

`C=CCc1ccc(OC)c(OC)c1` [4-allyl-1,2-dimethoxy-benzene, 4-allyl-1,2-dimethoxy-benzene]: the “Inhibition of Aggregation αSyn” value on α-synuclein is recorded as “− ((−) is between −10% to 10% inhibition)”. Further, in assay [1], the “Inhibition of Aggregation CsgA-seeded αSyn” value was “++ ((++) is between 30% to 60% inhibition)”. In addition, the “Inhibition of Aggregation CsgA” value at E. coli CsgA is given as “− − ((− −) is less than −10% inhibition)”.

On to `COc1ccccc1O` [guaiacol], for which the “Inhibition of Aggregation αSyn” value on α-synuclein (ThT fluorescence, cell-free) is recorded as “− ((−) is between −10% to 10% inhibition)”. The “Inhibition of Aggregation CsgA-seeded αSyn” value in assay [1] was “++ ((++) is between 30% to 60% inhibition)”. On E. coli CsgA, the “Inhibition of Aggregation CsgA” value is reported as “− ((−) is between −10% to 10% inhibition)”.

Take `O=c1c(O)c(-c2ccc(O)c(O)c2)oc2cc(O)cc(O)c12` [quercetin]: the “Inhibition of Aggregation αSyn” value at α-synuclein (ThT fluorescence, cell-free) is given as “+++ ((+++) is greater than 60% inhibition)”. At E. coli CsgA, the “Inhibition of Aggregation CsgA” value is on record as “++ ((++) is between 30% to 60% inhibition)”.

`O=c1c(O)c(-c2ccc(O)cc2O)oc2cc(O)cc(O)c12` [morin]: the “Inhibition of Aggregation αSyn” value on α-synuclein (ThT fluorescence, cell-free) is on record as “+++ ((+++) is greater than 60% inhibition)”. Besides, the “Inhibition of Aggregation CsgA-seeded αSyn” value in assay [1] was “+++ ((+++) is greater than 60% inhibition)”. On E. coli CsgA, the “Inhibition of Aggregation CsgA” value was “+++ ((+++) is greater than 60% inhibition)”.

Regarding `Cc1ccc(C(C)C)cc1O` [carvacrol], on α-synuclein (ThT fluorescence, cell-free), the “Inhibition of Aggregation αSyn” value is “− ((−) is between −10% to 10% inhibition)”. The “Inhibition of Aggregation CsgA-seeded αSyn” value in assay [1] is “− ((−) is between −10% to 10% inhibition)”. Moreover, the “Inhibition of Aggregation CsgA” value on E. coli CsgA is recorded as “− − ((− −) is less than −10% inhibition)”.

Consider `Brc1cccc(-c2cc(-c3ccc4c(c3)OCO4)n[nH]2)c1` [Anle 138b], for which the “Inhibition of Aggregation CsgA” value on E. coli CsgA is reported as “− ((−) is between −10% to 10% inhibition)”.

As to `CCCCCCCCCCCCOC(=O)c1cc(O)c(O)c(O)c1` [lauryl gallate], the “Inhibition of Aggregation αSyn” value at α-synuclein (ThT fluorescence, cell-free) is listed as “++ ((++) is between 30% to 60% inhibition)”. In addition, in assay [1], the “Inhibition of Aggregation CsgA-seeded αSyn” value is “+ ((+) is between 10% to 30% inhibition)”. The “Inhibition of Aggregation CsgA” value on E. coli CsgA is given as “− ((−) is between −10% to 10% inhibition)”.

In the case of `O=C(/C=C/c1ccc(O)c(O)c1)O[C@H](Cc1ccc(O)c(O)c1)C(=O)O` [rosmarinic acid], the “Inhibition of Aggregation αSyn” value on α-synuclein (ThT fluorescence, cell-free) is “+++ ((+++) is greater than 60% inhibition)”. Also, the “Inhibition of Aggregation CsgA” value at E. coli CsgA is on record as “++ ((++) is between 30% to 60% inhibition)”.

Take `O=C(CCc1ccc(O)cc1)c1c(O)cc(O)cc1O` [phloretin]: at α-synuclein (ThT fluorescence, cell-free), the “Inhibition of Aggregation αSyn” value is on record as “++ ((++) is between 30% to 60% inhibition)”. Besides, the “Inhibition of Aggregation CsgA-seeded αSyn” value in assay [1] is on record as “+ ((+) is between 10% to 30% inhibition)”. Further, the “Inhibition of Aggregation CsgA” value on E. coli CsgA is “+ ((+) is between 10% to 30% inhibition)”.

As to `O=c1c(-c2ccc(O)cc2)coc2cc(O)cc(O)c12` [genistein], the “Inhibition of Aggregation αSyn” value on α-synuclein (ThT fluorescence, cell-free) is “++ ((++) is between 30% to 60% inhibition)”.

`COc1cc(O)ccc1O` [methoxy- hydroquinone, methoxy-hydroquinone]: the “Inhibition of Aggregation αSyn” value on α-synuclein (ThT fluorescence, cell-free) is given as “+++ ((+++) is greater than 60% inhibition)”. The “Inhibition of Aggregation CsgA-seeded αSyn” value in assay [1] is “+++ ((+++) is greater than 60% inhibition)”. The “Inhibition of Aggregation CsgA” value on E. coli CsgA is listed as “++ ((++) is between 30% to 60% inhibition)”.

With `CC(Cc1ccc(O)c(O)c1)C(C)Cc1ccc(O)c(O)c1` (centres unmarked) [NDGA], the “Inhibition of Aggregation αSyn” value at α-synuclein (ThT fluorescence, cell-free) was “++ ((++) is between 30% to 60% inhibition)”. In assay [1], the “Inhibition of Aggregation CsgA-seeded αSyn” value is on record as “++ ((++) is between 30% to 60% inhibition)”. Also, the “Inhibition of Aggregation CsgA” value at E. coli CsgA was “+ ((+) is between 10% to 30% inhibition)”.

Regarding `O=C(O[C@@H]1Cc2c(O)cc(O)cc2O[C@@H]1c1cc(O)c(O)c(O)c1)c1cc(O)c(O)c(O)c1` [EGCG, epigallocatechin gallate], in the assay on αSyn amyloid formation, the motor scores result is recorded as “improved motor scores” and the “αSyn amyloid formation in vivo” value was “inhibits or reduces αSyn amyloid formation in mice”. Also, at α-synuclein (ThT fluorescence, cell-free), the “Inhibition of Aggregation αSyn” value was “+++ ((+++) is greater than 60% inhibition)”. Also, in assay [1], the “Inhibition of Aggregation CsgA-seeded αSyn” value is given as “+++ ((+++) is greater than 60% inhibition)”. In addition, the “Inhibition of Aggregation CsgA” value at E. coli CsgA was “++ ((++) is between 30% to 60% inhibition)”. Further, the “in vivo activity on fecal curli content” value in assay [2] was “reduce fecal levels of csgA mRNA, CsgA protein, and curli protein”.

On to `COc1cc(/C=C/C(=O)/C=C(O)/C=C/c2ccc(O)c(OC)c2)ccc1O` [curcumin], for which the “Inhibition of Aggregation αSyn” value at α-synuclein (ThT fluorescence, cell-free) is given as “+++ ((+++) is greater than 60% inhibition)”. For the same compound, in assay [1], the “Inhibition of Aggregation CsgA-seeded αSyn” value is “+++ ((+++) is greater than 60% inhibition)”.

Turning to `C/C=C/c1ccc(O)c(OC)c1` [isoeugenol], the “Inhibition of Aggregation αSyn” value on α-synuclein (ThT fluorescence, cell-free) is “− ((−) is between −10% to 10% inhibition)”. For the same compound, the “Inhibition of Aggregation CsgA-seeded αSyn” value in assay [1] was “++ ((++) is between 30% to 60% inhibition)”. In addition, the “Inhibition of Aggregation CsgA” value at E. coli CsgA is listed as “− ((−) is between −10% to 10% inhibition)”.

Consider `C=CCc1ccc(O)c(OC)c1` [eugenol], for which the “Inhibition of Aggregation αSyn” value at α-synuclein (ThT fluorescence, cell-free) is recorded as “− ((−) is between −10% to 10% inhibition)”. Further, the “Inhibition of Aggregation CsgA-seeded αSyn” value in assay [1] is recorded as “++ ((++) is between 30% to 60% inhibition)”. The “Inhibition of Aggregation CsgA” value on E. coli CsgA is “− ((−) is between −10% to 10% inhibition)”.

Regarding `Oc1ccc(/C=C/c2cc(O)cc(O)c2)cc1` [resveratrol], the “Inhibition of Aggregation αSyn” value on α-synuclein (ThT fluorescence, cell-free) is given as “+++ ((+++) is greater than 60% inhibition)”. The “Inhibition of Aggregation CsgA” value at E. coli CsgA is on record as “+++ ((+++) is greater than 60% inhibition)”.

On to `O=C(O)c1cc(O)c(O)c(O)c1` [gallic acid], for which, at α-synuclein (ThT fluorescence, cell-free), the “Inhibition of Aggregation αSyn” value was “+++ ((+++) is greater than 60% inhibition)”. Besides, the “Inhibition of Aggregation CsgA-seeded αSyn” value in assay [1] was “+++ ((+++) is greater than 60% inhibition)”. At E. coli CsgA, the “Inhibition of Aggregation CsgA” value is “+++ ((+++) is greater than 60% inhibition)”.

As for `Cc1ccc(C(C)C)c(O)c1` [thymol], the “Inhibition of Aggregation αSyn” value at α-synuclein (ThT fluorescence, cell-free) is “− − ((− −) is less than −10% inhibition)”. For the same compound, in assay [1], the “Inhibition of Aggregation CsgA-seeded αSyn” value is “− ((−) is between −10% to 10% inhibition)”. Further, the “Inhibition of Aggregation CsgA” value at E. coli CsgA is reported as “− ((−) is between −10% to 10% inhibition)”.

On to `O=c1cc(-c2ccc(O)cc2)oc2cc(O)cc(O)c12` [apigenin], for which the “Inhibition of Aggregation αSyn” value on α-synuclein (ThT fluorescence, cell-free) is on record as “++ ((++) is between 30% to 60% inhibition)”.
